Source: patent US20240402081A1, “MOLECULAR DIFFUSION EVALUATION METHOD AND SYSTEM” (Nippon Telegraph and Telephone Corporation, priority 2021, published 2024)

Assay: SPR measurement of tracer molecule diffusion in a hydrogel layer (channel chip)
Type: physicochemical
Conditions: aqueous solutions of glucose and ethanol as tracer molecules; FIG. 5
Description: Hereinafter, a molecular diffusion evaluation method according to an embodiment of the present invention will be described with reference to FIG. 1. First, in step S101, a solution in which a target molecule (tracer molecule) is dissolved is introduced into a channel. The channel is formed on, for example, a measurement chip used by being attached to a surface plasmon resonance (SPR) measurement system. The channel includes a measurement area by surface plasmon resonance and a hydrogel layer provided in the middle of the measurement area. […] In a process where the solution in which the target molecule is dissolved passes through the portion where the hydrogel layer is not formed and the portion where the hydrogel layer is formed, the refractive index (SPR angle) at each portion is measured in time series, and the refractive index change (time change in SPR angle) at each portion is acquired. The refractive index change measured in the process of passing through the portion where the hydrogel layer is not formed is the first measurement result. In addition, the refractive index change measured in the process of passing through the portion where the hydrogel layer is formed is the second measurement result. Next, in step S103, the diffusion rate of molecules in the hydrogel is evaluated by comparing the first measurement result with the second measurement result (evaluation step). […]

SMILES: CCO [ethanol]
- diffusion rate in the acrylamide gel, comparison of scaled SPR angle change curves: different
